Values after ≈ are worked out from the molar mass of the structure shown. Values joined by “and” are separate entries in the source; they are usually repeats but may differ in a detail not shown here. Identical values can stand only once. Like-named read-outs stand apart in the source and are kept apart here.
How the values were obtained:
[1] = Hepatic microsomal stability, MLM; format: in vitro ADME
in vitro [2] = assay: in vitro; parameters: Cytotoxicity in iPSC-derived pneumocytes, CC50; settings: human, ipsc-derived pneumocytes, read-out: 50.0
Source text: Finally, we consider the hypothesis that interferon response triggers ADP-ribosylation, thus profiling the compounds in enhanced and physiologically relevant interferon environments could reveal detectable antiviral effects. […] Furthermore, HeLa-ACE2 cells, and all cancerous cell lines, display defective innate immune response ([1]). As such, we also assess our compound in a primary-like iPSC-derived pneumocyte system (Figure 7C), showing likewise a lack of antiviral activity in this physiologically relevant innate immunity system.

[3] = Permeability Papp (AB) MDR1/MDCKII; settings: for papp_a_to_b_mean / papp_b_to_a_mean / efflux_ratio / perc_recovery_a_to_b_mean / perc_recovery_b_to_a_mean: In vitro MDR1-MDCKII permeability; for papp_a_to_b_mean: A to B; for papp_b_to_a_mean: B to A; for perc_recovery_a_to_b_mean / perc_recovery_a_to_b_inhibitor_mean: recovery A to B; for perc_recovery_b_to_a_mean / perc_recovery_b_to_a_inhibitor_mean: recovery B to A; for perc_recovery_a_to_b_inhibitor_mean / perc_recovery_b_to_a_inhibitor_mean: MDR1-MDCKII
[4] = Hepatic microsomal stability, HLM; format: in vitro ADME, human; settings: In vitro human liver microsomal stability; for perc_remaining_no_cofactor: no cofactor
[5] = In vitro kinetic solubility; settings: In vitro kinetic solubility, ph 7.4
SARS-CoV-2 = assay: Antiviral effect in iPSC-derived pneumocyte system; format: cell-based; settings: iPSC pneumocytes SARS-CoV-2 antiviral effect; for perc_max_measured: maximum measured response of dose series; for perc_min_measured: minimum measured response of dose series
[6] = system: SARS-CoV-2, isolate USA-WA1/2020; assay: microbe, parasite or virus in culture; format: cell-based; settings: HeLa-ACE2 SARS-CoV-2 antiviral effect without P-gp inhibitor; for perc_max_measured: maximum measured response of dose series; for perc_min_measured: minimum measured response of dose series; for EC50: read-out: ec50; for EC90: read-out: ec90
in vitro [7] = settings: human, hela-ace2 cells, 50.0
iPSC pneumocytes = iPSC pneumocytes cytotoxicity; format: cell-based; settings: for perc_max_measured: highest measured response of the dose series; for perc_min_measured: lowest measured response of the dose series
Source text: Supplement media-1.zip/Cytotoxicity.csv, table | column: cc10; cc50; perc_min_measured; perc_max_measured

HeLa-ACE2 cells = settings: protocol HeLa-ACE2 cytotoxicity; for perc_max_measured: highest measured response of the dose series; for perc_min_measured: lowest measured response of the dose series
LogD = settings: pH 7.4; In vitro LogD
[8] = In vitro mouse liver microsomal stability
[9] = In vitro mouse liver microsomal stability, no cofactor
[10] = protocol iPSC pneumocytes cytotoxicity

| Structure (SMILES) | clint [1, 8] [µL/min/mg] | perc_remaining [1, 8] [%] | t_half [1, 8] [min] | clint [4] [µL/min/mg] | perc_remaining [4] [%] | t_half [4] [min] | perc_remaining_no_cofactor [4] [%] | solubility_mean [5] [µM] | EC50 (SARS-CoV-2) [µM] | EC90 (SARS-CoV-2) [µM] | perc_max_measured (SARS-CoV-2) [%] | perc_min_measured (SARS-CoV-2) [%] | perc_max_measured [6] [%] | perc_min_measured [6] [%] | EC50 [6] [µM] | EC90 [6] [µM] | CC50 at 24 h (in vitro [7]) [µM] | CC50 (HeLa-ACE2 cells) [µM] | cc10 (HeLa-ACE2 cells) [µM] | perc_max_measured (HeLa-ACE2 cells) [%] | also measured |
| --- | --- | --- | --- | --- | --- | --- | --- | --- | --- | --- | --- | --- | --- | --- | --- | --- | --- | --- | --- | --- | --- |
| CC(C)[C@@H](Nc1ncnc2[nH]c(-c3cnn(C)c3C#N)cc12)c1ccc2c(c1)S(=O)(=O)CCC2 (single isomer, unassigned) [ASAP-0011147] | 709.0 | 0.0 | 2.4 | 516.0 | 0.0 | 3.2 | 101.0 | 26 (≈ 12.4 µg/mL) | 0.411 | 13 | 75.192 | 0.111 | 114.163 | 4.545 | 3.51 | 13.2 | > 20 | > 20 | > 20.0 | 92.283 | perc_remaining_no_cofactor [1, 9]: 106.0%; CC50 (in vitro [2]; ASAP-0008327-001=ASAP-0011147-001): > 50 µM; papp_a_to_b_mean ([3]; mean): 1.82 ×10⁻⁶ cm/s; papp_a_to_b_mean ([3]; no inhibitor): 0.087 ×10⁻⁶ cm/s; papp_b_to_a_mean ([3]; no inhibitor): 7.5 ×10⁻⁶ cm/s; efflux_ratio ([3]; no inhibitor): 85.7; perc_recovery_a_to_b_mean ([3]; mean): 54.6%; perc_recovery_a_to_b_mean ([3]; no inhibitor): 82.5%; perc_recovery_b_to_a_mean ([3]; no inhibitor): 96.5%; perc_recovery_a_to_b_inhibitor_mean ([3]; with inhibitor Verapamil): 63.2%; perc_recovery_b_to_a_inhibitor_mean ([3]; with inhibitor Verapamil): 72.3%; CC50 (iPSC pneumocytes): > 50 µM; cc10 (iPSC pneumocytes): > 50.0 µM; perc_max_measured (iPSC pneumocytes): 111.987%; perc_min_measured (iPSC pneumocytes): 95.623%; perc_min_measured (HeLa-ACE2 cells): 75.829%; logd (LogD): 3.7 |
| CC(C)[C@H](Nc1ncnc2[nH]c(-c3cnn(CC(N)=O)c3)cc12)c1ccc2c(c1)S(=O)(=O)CCC2 (single isomer, unassigned) [ASAP-0011428] | 39.0 | 53.0 | 42.6 | 240.0 | 2.0 | 7.0 | 115.0 | 338 (≈ 167 µg/mL) | > 50 | > 50 | 119.318 | 70.174 | 108.399 | 92.21 | > 20 | > 20 | > 20 | > 20 | > 20.0 | 96.287 | perc_remaining_no_cofactor [1, 9]: 98.0%; CC50 (in vitro [2]; ASAP-0008327-001=ASAP-0011428-001): > 50 µM; papp_a_to_b_mean ([3]; mean): 1.98 ×10⁻⁶ cm/s; papp_a_to_b_mean ([3]; no inhibitor): 0.0832 ×10⁻⁶ cm/s; papp_b_to_a_mean ([3]; no inhibitor): 0.072 ×10⁻⁶ cm/s; efflux_ratio ([3]; no inhibitor): 0.9; perc_recovery_a_to_b_mean ([3]; mean): 85.9%; perc_recovery_a_to_b_mean ([3]; no inhibitor): 65.5%; perc_recovery_b_to_a_mean ([3]; no inhibitor): 72.9%; perc_recovery_a_to_b_inhibitor_mean ([3]; with inhibitor Verapamil): 73.2%; perc_recovery_b_to_a_inhibitor_mean ([3]; with inhibitor Verapamil): 79.8%; CC50 (iPSC pneumocytes): > 50 µM; cc10 (iPSC pneumocytes): > 50.0 µM; perc_max_measured (iPSC pneumocytes): 106.229%; perc_min_measured (iPSC pneumocytes): 92.999%; perc_min_measured (HeLa-ACE2 cells): 76.492%; logd (LogD): 2.1 |
| CC(C)[C@@H](Nc1ncnc2[nH]c(-c3cnn(C)c3)cc12)c1ccc2c(c1)S(=O)(=O)CCC2 (single isomer, unassigned) [ASAP-0012329] | 140.0 | 10.0 | 11.9 | 405.0 | 0.0 | 4.1 | 105.0 | 111 (≈ 50 µg/mL) | 7.59 | > 50 | 103.795 | 0.206 | 119.22 | 72.714 | > 20 | > 20 | > 20 | > 20 | > 20.0 | 91.281 | perc_remaining_no_cofactor [1, 9]: 102.0%; CC50 (in vitro [2]; ASAP-0008327-001=ASAP-0012329-001): > 50 µM; papp_b_to_a_mean ([3]; no inhibitor): 3.9 ×10⁻⁶ cm/s and 5.0 ×10⁻⁶ cm/s; efflux_ratio ([3]; no inhibitor): 40.3 and 73.5; perc_recovery_a_to_b_mean ([3]; no inhibitor): 72.3% and 98.8% and 68.0%; perc_recovery_b_to_a_mean ([3]; no inhibitor): 79.2% and 106.0%; perc_recovery_a_to_b_inhibitor_mean ([3]; with inhibitor Cyclosporin A): 77.4%; perc_recovery_a_to_b_inhibitor_mean ([3]; with inhibitor Verapamil): 104.0%; perc_recovery_b_to_a_inhibitor_mean ([3]; with inhibitor Cyclosporin A): 63.1%; perc_recovery_b_to_a_inhibitor_mean ([3]; with inhibitor Verapamil): 96.9%; CC50 (iPSC pneumocytes): > 50 µM; cc10 (iPSC pneumocytes): 30.402 µM; perc_max_measured (iPSC pneumocytes): 108.573%; perc_min_measured (iPSC pneumocytes): 85.97%; perc_min_measured (HeLa-ACE2 cells): 71.036%; logd (LogD): 3.2 |
| CC(C)[C@@H](Nc1ncnc2[nH]c(-c3cnn(CC(N)=O)c3)cc12)c1ccc2c(c1)OCCO2 [ASAP-0008288] | 41.0 | 54.0 | 41.1 | 99.0 | 20.0 | 16.9 | 103.0 | 345 (≈ 154 µg/mL) | 37.1 | > 50 | 96.462 | 23.083 | 122.799 | 73.654 | > 50 | > 50 | > 50 | > 50 | > 50.0 | 128.866 | perc_remaining_no_cofactor ([1]; In vitro mouse liver microsomal stability; no cofactor): 87.0%; CC50 (in vitro [2]; ASAP-0008327-001=ASAP-0008288-001): > 50 µM; papp_a_to_b_mean ([3]; mean): 0.9 ×10⁻⁶ cm/s; perc_recovery_a_to_b_mean ([3]; mean): 89.0%; CC50 (iPSC pneumocytes; [10]): > 50 µM; cc10 (iPSC pneumocytes; [10]): > 50.0 µM; perc_max_measured (iPSC pneumocytes; [10]): 102.79%; perc_min_measured (iPSC pneumocytes; [10]): 85.436%; perc_min_measured (HeLa-ACE2 cells): 114.308%; logd (LogD): 0.9 |

Source: paper doi:10.1101/2024.08.19.608619, “Discovery of potent SARS-CoV-2 nsp3 macrodomain inhibitors uncovers lack of translation to cellular antiviral response” (bioRxiv, 2024)
